According to patent US8148373B2, “Compounds” (AstraZeneca AB, priority 2008, dated 2012):

How the values were obtained:
[1] = target: T1, Adrenergic β2 (H292 cells) (Homo sapiens, UniProt P07550); test: Assay for Adrenergic β2 Mediated cAMP Production (concentration response, AlphaScreen cAMP detection); assay type: cell-based; conditions: for EC50: cAMP production, 60 minutes at room temperature, 300 μM rolipram, read-out: β2 pEC50 (converted); for β2 Intrinsic activity: fraction relative to the maximum activity determined for formoterol
T1 construct: endogenous in cells; host or cells: H292 cells
Outline: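 Intrinsic activity is relative to the per-experiment formoterol maximum, with pEC50 from a four-parameter logistic fit of cAMP levels quantified by AlphaScreen against standards. Cells (H292) got 300 μM rolipram for 10 min, then compound for 60 min at room temperature, 1% DMSO final.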

[2] = target: T2, human muscarinic acetylcholine M3 receptor (M3-ACh) (Homo sapiens, UniProt P20309); test: Muscarinic 3 Receptor Binding Assay ([3H]NMS competition, SPA); conditions: [3H]NMS 0.1 nM, CHO-K1 cell membranes, 16 hours at room temperature; read-out: M3 pIC50 (converted)
T2 construct: expressed in transfected cells; host or cells: CHO-K1 (Chinese Hamster Ovary) cell membranes
Outline: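 Competition SPA binding of 0.1 nM [3H]NMS (quarter Kd) to membranes from CHO-K1 cells expressing human M3, in 20 mM HEPES pH 7.4, 5 mM MgCl2, 1% DMSO. Incubated 16 h at room temperature; non-specific binding with 1 µM atropine. pIC50 from 50% reduction of specific binding.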

T1 sequence (P07550 whole entry): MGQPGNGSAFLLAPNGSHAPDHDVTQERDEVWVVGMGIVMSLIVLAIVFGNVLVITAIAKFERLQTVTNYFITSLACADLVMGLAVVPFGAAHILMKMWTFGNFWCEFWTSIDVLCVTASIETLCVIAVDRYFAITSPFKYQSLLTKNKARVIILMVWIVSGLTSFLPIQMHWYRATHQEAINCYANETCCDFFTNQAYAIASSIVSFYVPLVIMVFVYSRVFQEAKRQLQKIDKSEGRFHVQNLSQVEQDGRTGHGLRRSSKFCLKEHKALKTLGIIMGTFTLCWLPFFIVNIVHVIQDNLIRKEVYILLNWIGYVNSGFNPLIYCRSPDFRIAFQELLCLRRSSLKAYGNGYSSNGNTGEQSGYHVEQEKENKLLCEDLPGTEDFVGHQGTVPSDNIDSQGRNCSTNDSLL
T2 sequence (P20309 whole entry): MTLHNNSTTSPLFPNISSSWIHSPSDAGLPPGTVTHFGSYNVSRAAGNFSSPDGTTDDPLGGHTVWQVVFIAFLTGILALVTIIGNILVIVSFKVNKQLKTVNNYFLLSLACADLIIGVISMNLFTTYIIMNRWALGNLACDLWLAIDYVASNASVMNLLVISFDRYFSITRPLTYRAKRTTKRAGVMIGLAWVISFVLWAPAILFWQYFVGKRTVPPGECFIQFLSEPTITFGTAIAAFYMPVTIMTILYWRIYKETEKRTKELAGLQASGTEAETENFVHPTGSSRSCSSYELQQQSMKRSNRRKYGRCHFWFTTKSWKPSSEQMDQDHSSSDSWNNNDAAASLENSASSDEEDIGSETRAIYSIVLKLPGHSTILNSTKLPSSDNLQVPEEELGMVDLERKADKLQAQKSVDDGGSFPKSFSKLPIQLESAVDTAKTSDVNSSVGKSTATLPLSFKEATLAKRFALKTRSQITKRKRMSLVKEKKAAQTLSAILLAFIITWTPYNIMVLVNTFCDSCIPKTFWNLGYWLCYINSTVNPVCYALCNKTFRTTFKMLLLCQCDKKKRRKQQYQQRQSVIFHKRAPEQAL

Cc1ccc(S(=O)(=O)N2CCOC3(CCN(Cc4cc(F)cc(CCNC[C@H](O)c5ccc(O)c6[nH]c(=O)sc56)c4)CC3)C2)s1 [Example 63, (R)-7-(2-(3-Fluoro-5-((4-(5-methylthiophen-2-ylsulfonyl)-1-oxa-4,9-diazaspiro[5.5]undecan-9-yl)methyl)phenethylamino)-1-hydroxyethyl)-4-hydroxybenzo[d]thiazol-2(3H)-one ditrifluoroacetate]
EC50 [1]: 5.01 nM | β2 Intrinsic activity [1]: 1 | IC50 [2]: > 1000 nM

CC(C)c1nc(C(=O)N2CCOC3(CCN(Cc4cccc(OCCNC[C@H](O)c5ccc(O)c6[nH]c(=O)sc56)c4)CC3)C2)cs1 [Example 64, (R)-4-Hydroxy-7-(1-hydroxy-2-(2-(3-((4-(2-isopropylthiazole-4-carbonyl)-1-oxa-4,9-diazaspiro[5.5]undecan-9-yl)methyl)phenoxy)ethylamino)ethyl)benzo[d]thiazol-2(3H)-one ditrifluoroacetate]
EC50 [1]: 50.1 nM | β2 Intrinsic activity [1]: 0.9 | IC50 [2]: 0.2 nM

CC(C)c1nc(C(=O)N2CCOC3(CCN(Cc4cccc(SCCNC[C@H](O)c5ccc(O)c6[nH]c(=O)sc56)c4)CC3)C2)cs1 [Example 65, (R)-4-Hydroxy-7-(1-hydroxy-2-(2-(3-((4-(2-isopropylthiazole-4-carbonyl)-1-oxa-4,9-diazaspiro[5.5]undecan-9-yl)methyl)phenylthio)ethylamino)ethyl)benzo[d]thiazol-2(3H)-one ditrifluoroacetate]
EC50 [1]: 100 nM | β2 Intrinsic activity [1]: 0.9 | IC50 [2]: 0.631 nM

CC(C)c1csc(C(=O)N2CCOC3(CCN(Cc4cccc(CCNC[C@H](O)c5ccc(O)c6[nH]c(=O)sc56)c4)CC3)C2)n1 [Example 66, (R)-4-Hydroxy-7-(1-hydroxy-2-(3-((4-(4-isopropylthiazole-2-carbonyl)-1-oxa-4,9-diazaspiro[5.5]undecan-9-yl)methyl)phenethylamino)ethyl)benzo[d]thiazol-2(3H)-one ditrifluoroacetate]
EC50 [1]: 15.8 nM | β2 Intrinsic activity [1]: 0.9 | IC50 [2]: 0.794 nM

O=C(c1csc(CC(F)(F)F)n1)N1CCOC2(CCN(Cc3cccc(CCNC[C@H](O)c4ccc(O)c5[nH]c(=O)sc45)c3F)CC2)C1 [Example 67, (R)-7-(2-(2-Fluoro-3-((4-(2-(2,2,2-trifluoroethyl)thiazole-4-carbonyl)-1-oxa-4,9-diazaspiro[5.5]undecan-9-yl)methyl)phenethylamino)-1-hydroxyethyl)-4-hydroxybenzo[d]thiazol-2(3H)-one ditrifluoroacetate]
EC50 [1]: 15.8 nM | β2 Intrinsic activity [1]: 0.9 | IC50 [2]: 3.16 nM

O=C(c1ccc2sccc2c1)N1CCOC2(CCN(Cc3cccc(CCNC[C@H](O)c4ccc(O)c5[nH]c(=O)sc45)c3F)CC2)C1 [Example 68, (R)-7-(2-(3-((4-(Benzo[b]thiophene-5-carbonyl)-1-oxa-4,9-diazaspiro[5.5]undecan-9-yl)methyl)-2-fluorophenethylamino)-1-hydroxyethyl)-4-hydroxybenzo[d]thiazol-2(3H)-one ditrifluoroacetate]
EC50 [1]: 6.31 nM | β2 Intrinsic activity [1]: 0.8 | IC50 [2]: 25.1 nM

Cc1sc(C(C)C)nc1C(=O)N1CCOC2(CCN(Cc3cccc(CCNC[C@H](O)c4ccc(O)c5[nH]c(=O)sc45)c3F)CC2)C1 [Example 69, (R)-7-(2-(2-Fluoro-3-((4-(2-isopropyl-5-methylthiazole-4-carbonyl)-1-oxa-4,9-diazaspiro[5.5]undecan-9-yl)methyl)phenethylamino)-1-hydroxyethyl)-4-hydroxybenzo[d]thiazol-2(3H)-one ditrifluoroacetate]
EC50 [1]: 15.8 nM | β2 Intrinsic activity [1]: 0.9 | IC50 [2]: 20 nM

CC(C)c1cc(C(=O)N2CCOC3(CCN(Cc4cccc(CCNC[C@H](O)c5ccc(O)c6[nH]c(=O)sc56)c4F)CC3)C2)cs1 [Example 70, (R)-7-(2-(2-Fluoro-3-((4-(5-isopropylthiophene-3-carbonyl)-1-oxa-4,9-diazaspiro[5.5]undecan-9-yl)methyl)phenethylamino)-1-hydroxyethyl)-4-hydroxybenzo[d]thiazol-2(3H)-one ditrifluoroacetate]
EC50 [1]: 7.94 nM | β2 Intrinsic activity [1]: 0.8 | IC50 [2]: 3.16 nM

CCC(CC)c1nc(C(=O)N2CCOC3(CCN(Cc4cccc(CCNC[C@H](O)c5ccc(O)c6[nH]c(=O)sc56)c4F)CC3)C2)cs1 [Example 71, (R)-7-(2-(2-Fluoro-3-((4-(2-(pentan-3-yl)thiazole-4-carbonyl)-1-oxa-4,9-diazaspiro[5.5]undecan-9-yl)methyl)phenethylamino)-1-hydroxyethyl)-4-hydroxybenzo[d]thiazol-2(3H)-one ditrifluoroacetate]
EC50 [1]: 20 nM | β2 Intrinsic activity [1]: 0.8 | IC50 [2]: 5.01 nM

CC(C)Cc1nc(C(=O)N2CCOC3(CCN(Cc4cccc(CCNC[C@H](O)c5ccc(O)c6[nH]c(=O)sc56)c4F)CC3)C2)cs1 [Example 72, (R)-7-(2-(2-Fluoro-3-((4-(2-isobutylthiazole-4-carbonyl)-1-oxa-4,9-diazaspiro[5.5]undecan-9-yl)methyl)phenethylamino)-1-hydroxyethyl)-4-hydroxybenzo[d]thiazol-2(3H)-one ditrifluoroacetate]
EC50 [1]: 7.94 nM | β2 Intrinsic activity [1]: 0.8 | IC50 [2]: 10 nM

CC(C)c1ccc(C(=O)N2CCOC3(CCN(Cc4cccc(CCNC[C@H](O)c5ccc(O)c6[nH]c(=O)sc56)c4F)CC3)C2)s1 [Example 73, (R)-7-(2-(2-Fluoro-3-((4-(5-isopropylthiophene-2-carbonyl)-1-oxa-4,9-diazaspiro[5.5]undecan-9-yl)methyl)phenethylamino)-1-hydroxyethyl)-4-hydroxybenzo[d]thiazol-2(3H)-one ditrifluoroacetate]
EC50 [1]: 7.94 nM | β2 Intrinsic activity [1]: 0.9 | IC50 [2]: 7.94 nM

CC(C)c1csc(C(=O)N2CCOC3(CCN(Cc4cccc(CCNC[C@H](O)c5ccc(O)c6[nH]c(=O)sc56)c4F)CC3)C2)c1 [Example 74, (R)-7-(2-(2-Fluoro-3-((4-(4-isopropylthiophene-2-carbonyl)-1-oxa-4,9-diazaspiro[5.5]undecan-9-yl)methyl)phenethylamino)-1-hydroxyethyl)-4-hydroxybenzo[d]thiazol-2(3H)-one ditrifluoroacetate]
EC50 [1]: 12.6 nM | β2 Intrinsic activity [1]: 0.9 | IC50 [2]: 20 nM

CC(C)c1nc(C(=O)N2CCOC3(CCN(Cc4ccc(Cl)c(CCNC[C@H](O)c5ccc(O)c6[nH]c(=O)sc56)c4)CC3)C2)cs1 [Example 75, (R)-7-(2-(2-Chloro-5-((4-(2-isopropylthiazole-4-carbonyl)-1-oxa-4,9-diazaspiro[5.5]undecan-9-yl)methyl)phenethylamino)-1-hydroxyethyl)-4-hydroxybenzo[d]thiazol-2(3H)-one ditrifluoroacetate]
EC50 [1]: 25.1 nM | β2 Intrinsic activity [1]: 0.8 | IC50 [2]: 2 nM

CC(C)c1csc(C(=O)N2CCOC3(CCN(Cc4cccc(CCNC[C@H](O)c5ccc(O)c6[nH]c(=O)ccc56)c4)CC3)C2)n1 [Example 76, (R)-8-Hydroxy-5-(1-hydroxy-2-(3-((4-(4-isopropylthiazole-2-carbonyl)-1-oxa-4,9-diazaspiro[5.5]undecan-9-yl)methyl)phenethylamino)ethyl)quinolin-2(1H)-one ditrifluoroacetate]
EC50 [1]: 31.6 nM | β2 Intrinsic activity [1]: 0.9 | IC50 [2]: 2 nM
